# Values of other authors in patent US20240156891A1, “EXTRACTS OF SALVIA MILTIORRHIZA AND/OR PONCIRUS TRIFOLIATA FOR INHIBITING BODY WEIGHT GAIN” (Taipei Medical University, priority 2022, published 2024).
# Details: typical values of solvents
row,Compound,log Kow
1,CCOC(C)=O [ethyl acetate],0.66~0.73
2,CC(C)=O [acetone],−0.24
3,CCCCCC [n-hexane],3.17~3.94
4,CO [methanol],−0.82~−0.66
